Reference: patent US20030049698A1, “Diagnosis and treatment of gastrointestinal disease” (priority 2002, published 2003)

Legend:
CCK-B/gastrin receptor = molecular target: T1, CCK-B/gastrin receptor (Rattus norvegicus, UniProt P30553); conditions: reportedly; cited from earlier work
T1 sequence (P30553 1-452): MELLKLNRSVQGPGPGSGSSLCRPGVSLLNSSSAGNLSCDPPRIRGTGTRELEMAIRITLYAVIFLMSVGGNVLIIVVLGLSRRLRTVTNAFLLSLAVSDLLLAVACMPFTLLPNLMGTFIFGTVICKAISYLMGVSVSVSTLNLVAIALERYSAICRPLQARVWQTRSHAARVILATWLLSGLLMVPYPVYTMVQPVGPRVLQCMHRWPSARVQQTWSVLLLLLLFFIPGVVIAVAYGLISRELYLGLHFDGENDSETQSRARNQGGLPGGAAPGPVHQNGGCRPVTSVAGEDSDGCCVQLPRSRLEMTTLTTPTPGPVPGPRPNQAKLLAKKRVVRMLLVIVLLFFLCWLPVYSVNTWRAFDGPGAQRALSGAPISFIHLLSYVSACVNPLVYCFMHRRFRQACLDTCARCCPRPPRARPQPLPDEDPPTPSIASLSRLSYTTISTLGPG

gastrin deficient mice [1] = assay: Gastric acid secretion, pyloric ligation, after infusion in gastrin deficient mice; type: in vivo; conditions: 10 nmol/kg/hr, 4 hours pyloric ligation, saline 5.4±2.0 nEq
Experimental: Animals were operated and sacrificed under anesthesia with Metofane.
(§1) The mice were fasted 24 hours prior to sacrifice.
After food deprivation for 24 hours, the mice were anesthetized with avertin, the abdominal cavity was incised, and each stomach was rinsed with 1 ml saline through a canula placed in the pylorus. The pylorus was then ligated and the gastric juice was collected 4 hours later (61). The acidity of the gastric contents was measured by titration with 0.02 N NaOH and expressed as H^+ nEq.

gastrin deficient mice [2] = assay: Gastric fundic mucosa proliferation by BrdU incorporation; type: in vivo; conditions: infusion 10 nmol/kg/hr; G-17 effect at one day; versus saline or G-17 alone
Experimental: as §1
Immunohistochemical detection of BrdU incorporation was performed using the avidin-biotin monoclonal antibody technique as previously described (51). Ten well oriented oxyntic glands or colonic crypts were counted per slide. Of the ten colonic crypts, 4 were obtained from the rectum, 3 from the descending colon, and 3 from the ascending colon. The BrdU labeling index was calculated by counting the number of BrdU-positive cells per gland/crypt and expressing the result as a percentage of the total number of cells per gland/crypt.

gastrin deficient mice [3] = assay: Parietal cell and ECL cell counts by immunohistochemistry; type: in vivo
Experimental: as §1
(§2) At the time of sacrifice, the stomach was divided into thirds longitudinally. One section was fixed in Carnoy's fixative overnight, and then embedded in paraffin. Routine H&E staining was performed. Parietal cells were stained using an antibody to the β subunit of H+/K+-ATPase MA3-923 (Affinity Bioreagents, Golden, Colo.) at a final dilution of 1:100, as previously described (62). Ten well oriented fundic glands were examined for parietal cell number, with the result expressed as number of parietal cells per gland (51).
Small tissue specimens (2×4 mm) were taken from the greater curvature of the oxyntic mucosa. They were fixed either in 4% 1-Ethyl-3(3-dimethylaminopropyl)-carbodiimide hydrochloride (Sigma, St. Louis, Mo.) for histamine staining, or in 4% paraformaldehyde for VMAT-2 staining, for 8-12 h at 4° C., then rinsed with 20% sucrose in 0.1 M phosphate-buffered saline (pH 7.4). Fresh frozen tissue sections were cut in a cryostat (Bright, Huntington, England) at 10 μm thickness. The sections were thawed onto gelatin-coated glass slides. After washing twice for 10 min with phosphate-buffered saline (pH 7.4), containing 0.25% Triton X-100 (PBS-T), the sections were incubated with either histamine antibody 8431 rabbit (Eurodiagnostic, Mahnö, Sweden) at a final dilution of 1:200 or VMAT-2 antibody B-GP 280-1 (Alpha Diagnostic Int., San Antonio, Tex.) at a dilution of 1:2000 overnight at 4° C. After washing twice with PBS-T (10 min each time), the sections were incubated for 1 h at room temperature with FITC-conjugated goat anti-rabbit IgG (Dako, Glostrup, Denmark) for histamine at a 1:40 dilution or donkey anti-guinea pig IgG (Jacksson InmunoResearch, Göteborg, Sweden) for VMAT-2 at a 1:100 dilution. […] The number of immunostained cells were counted and exressed as number per gland of mucosa.
Parietal and ECL cells were stained immunohistochemically as above. At least ten well oriented glands were then assessed for the number of positively stained cells per gland.

H+/K+-ATPase = H+/K+-ATPase expression by immunohistochemical analysis; type: in vivo, mice; conditions: compared to infusion of saline alone
Experimental: as §1, §2

gastrin deficient mice [4] = assay: Electron microscopy of parietal cells (activation, vacuolar canaliculi, lipofuscin bodies); type: in vivo
Experimental: as §1
Small tissue specimens (<1 mm^3) were taken from the oxyntic gland area and immediately immersed in a mixture of […] 1% glutaraldehyde, 3% formaldehyde, 0.075M sodium phoshpate buffer, pH 7.2, for 6 hours. The specimens were post-fixed in 1% osmium tetroxide for 1 hour, dehydrated in graded acetone solutions and embedded in Epon 812. Ultrathin sections (60-80 nm) were cut on a LKB MK III Ultratome, contrasted with uranyl acetate and lead citrate and examined in a Philips CM10 (Philips,) transmission electron microscope (63). Parietal cells were identified by the presence of secretory canuliculi and/or tubulovesicles, and ECL cells were identified by the presence of characteristic granules and vesicles in the cytoplasm. Point counting methods were used to analyze the voulume density of the various organelles as previously described (64,65). The cells were photographed (nucleated profiles only) at 6,000× magnification; the prints were then enlarged to 20,000× for planimetric analysis. Activated parietal cells were defined as cells having secretory canuliculi in their cytoplasm. The percentage of activated parietal cells was determined by analyzing the electron micrographs of 100 parietal cells per group. Vacuolar canaliculi were defined as canuliculi containing lysosomal bodies and/or vacuoles in their lumen. Lipofuscin bodies were identified by their high electron density (osmiophilia) in the cytoplasm.

| effect on H+/K+-ATPase expression (intensity of immunostaining) (H+/K+-ATPase) | Compound | potency relative to YF476 (CCK-B/gastrin receptor) | acid output (gastrin deficient mice [1]; after 14 days of infusion) [nEq] | acid output (gastrin deficient mice [1]; after one day of infusion) [nEq] | acid output (gastrin deficient mice [1]; after six days of infusion) [nEq] | proliferation rate of the gastric fundic mucosa (BrdU incorporation) (gastrin deficient mice [2]) | effect on ECL cell number (histamine or VMAT-2 staining) (gastrin deficient mice [3]; any time point examined) | increase in the number of parietal cells compared to saline (gastrin deficient mice [3]; by day 14 of infusion) [%] | effect on parietal cell number (in words) (gastrin deficient mice [3]; versus saline, or combination versus G-17 alone) | lipofuscin bodies, percentage of cell volume (gastrin deficient mice [4]; 14 day infusion, saline 0.26±0.10%) [%] | vacuolar canaliculi, percentage of cell volume (gastrin deficient mice [4]; 14 day infusion, saline 0.38±0.38%) [%] | activated parietal cells (gastrin deficient mice [4]; after 14 days of infusion, saline 27%) [%] |
| --- | --- | --- | --- | --- | --- | --- | --- | --- | --- | --- | --- | --- |
| – | Cc1cccc(NC(=O)N[C@@H]2N=C(c3ccccc3)c3ccccc3N(CC(=O)c3ccccc3C)C2=O)c1 [YM022] | about 5 times | – | – | – | – | – | – | – | – | – | – |
| no effect on H+/K+-ATPase expression | gastrin-17 [G-17] | – | 12.0±2.2 | 21.8±8.8 | 37.4±9.4 | significantly increased proliferation rate | neither G-17, G17-Gly, or the combination influenced ECL cell number | 65 | significant increase in parietal cell number | 1.88±0.27 | 7.50±2.40 | 27 |
